We go through 4 compounds from patent US4478763A, “Process for preparing alpha-fluorinated alkanediphosphonates” (Univ. of Southern California, priority 1982, dated 1984).

“Also recorded” adds a separate entry of the source. Where two headings read alike, the source gives them in different places.

Data set [1] can be described thus: Acidity comparison among methanediphosphonic acids. The class given is physicochemical. Particulars: for acidity compared with other methanediphosphonic acids (in words): qualitative comparison. Here is the method:
(§1) The effect of fluorine substitution on the acidity of methanediphosphonic acid is of interest. Using the empirical equations developed by R. G. Grabenstetter et al. J. Phys. Chem. 71, 4194 (1967), estimated pK° values for mono and difluoro methanediphosphonic acid were calculated and compared with experimental pK° data for the parent acid. It should be noted that the cited work set forth two alternative Taft equations for pK°4 on giving an optimal fit with bulkier substitution (e.g., CH3) and one to fit data for less sterically hindering substituents (e.g., H).

The conditions of data set [2]: cited from earlier work.
Data set [3] is described as follows: Estimation of pK° values of mono and difluoro methanediphosphonic acid from 31P chemical shift data. The class given is physicochemical. Conditions: calculated from 31P chemical shift data. Here is the method:
as §1

Data set [4] concerns bone resorption. Description: Inhibition of bone resorption. Conditions: compared with known drugs; no test data given.
[5] abbreviates: dichloro methanediphosphonic acid.
Setting [6] is: experimental pK° data, parent acid.

For the compound `O=P(O)(O)C(Cl)(Cl)P(=O)(O)O` [dichloro methanediphosphonic acid], in data set [1], the “acidity compared with other methanediphosphonic acids (in words)” value is “weaker than the difluoro substituted acid”. In data set [2] (setting [5]), the “pK°3” value was 6.1 and the “pK° 4” value is recorded as 9.8.
On to `O=P(O)(O)C(F)P(=O)(O)O` [monofluoro MDPA, Fluoro Methanediphosphonic Acid], for which, in data set [3] (listed as monofluoro acid), the “pK° 4” value is “approximately 10.1”. The pKa in data set [3] (read-out: pK° 2) was 2.78; in data set [3] (read-out: pK° 3) it was 6.62; in data set [3] (read-out: pK° 4) it was 10.1. The “acidity compared with other methanediphosphonic acids (in words)” value in data set [1] (listed as monofluoro acid) is “one order of magnitude below that of the parent acid; also recorded: comparable to that of dichloro methanediphosphonic acid”.
With `O=P(O)(O)CP(=O)(O)O` [MDPA, methanediphosphonic acid], in data set [2] (setting [6]), the “pK° 2” value is 3.1, the “pK°3” value is given as 7.4 and the “pK° 4” value is listed as 11.0.
Regarding `O=P(O)(O)C(F)(F)P(=O)(O)O` [difluoro MDPA, Difluoro Methanediphosphonic Acid], the pKa in data set [3] (read-out: pK° 2) is 2.57; in data set [3] (read-out: pK° 3), 6.08; in data set [3] (read-out: pK° 4), 9.07. In data set [1] (more acidic than the unfluorinated parent acid, calculated), the “acidity of the fourth proton relative to unfluorinated parent acid” value was 100 fold. The “acidity compared with other methanediphosphonic acids (in words)” value in data set [1] is reported as “strongest of the halomethanediphosphonic acids”. For the same compound, the “inhibition of bone resorption” value in data set [4] is “inhibits bone resorption at least as effectively as known drugs”.
